Legend:
IL-6 = experiment: Quantification of cytokines/chemokines in plasma: IL-6; assay type: in vivo, mice; details: Example 10; pro-drug in L608 (Merck-32) LNPs, s.c. 0.3 mg mRNA/kg, 7 and 24 hours; vs. Sample S26
Experimental: (§1) Different groups of 5 mice (female, age˜12 weeks, Crl:Cd1(ICR), Charles River) were administered with PBS (negative control) or mRNA 1 formulated in lipid nanoparticles. Prior to administration, the mice were lightly anaesthetized with Isoflurane 5% and the injection area was shaved. The formulations were then injected subcutaneously (5 ml/kg or 0.3 mg mRNA/kg) in the intrascapular region to different groups of mice. Post-dose blood samples were collected and plasma was prepared by centrifugation. Aliquots of plasma were transferred into cryo tubes (0.5 ml U-shaped polypropylene cryotubes (Sarstedt Microtube with cap Ref #72.730) and stored frozen until quantification of haptoglobin, cytokines/chemokines and mRNA 1 protein concentrations. In some studies, quantification was also carried out of lipophilic anti-inflammatory agent in plasma samples. At 24 hours after administration, clinical signs of inflammatory response was evaluated by gently pressing the finger over the injection area to determine edema and judged by visual inspection as edema or no edema in the different mice. The number of mice displaying visible signs of edema per group (each group having 5 mice) was summed to give an edema score of 0-5. Plasma concentrations of murine cytokines/chemokines were measured by EMD Millipore's MILLIPLEX® MAP Mouse Cytokine magnetic bead kit (Merck KGaA, Darmstadt, Germany) for the simultaneous quantification of cytokines; IL-6, KC, MCP-1 and IP-10. The samples were first diluted 1:2 with Assay buffer then, together with standard's and QC's placed in a 96 well plate. A solution containing beads were added. The beads are magnetic microspheres each of which is coated with a specific antibody. The mixture was incubated over night at 4° C. and the reaction mixture was then incubated with Streptavidin-PE conjungate to complete the reaction on the surface of each microsphere. The plate was read on analyzer Luminex® 100. Each individual microsphere was identified and the result of its bioassay quantified based on fluorescent reporter signals. The concentration was measured using Median Fluorescent Intensity (MFI) data using a 5-parameter logistic curve-fitting method.

mRNA 1 protein = experiment: Quantification of mRNA 1 protein in plasma; assay type: in vivo, mice; details: s.c. 0.3 mg mRNA/kg; for protein expression (plasma mRNA 1 protein): Example 6, pro-drug in DLin-MC3-DMA LNPs, 0-24 h, vs. non-anti-inflammatory LNPs; for expression of mRNA 1 (plasma): Example 10, pro-drug in L608 (Merck-32) LNPs, vs. conventional LNPs (Sample S26)
Experimental: (§2) Different groups of 5 mice (female, age˜12 weeks, Crl:Cd1(ICR), Charles River) were administered with PBS (negative control) or mRNA 1 formulated in lipid nanoparticles. Prior to administration, the mice were lightly anaesthetized with Isoflurane 5% and the injection area was shaved. The formulations were then injected subcutaneously (5 ml/kg or 0.3 mg mRNA/kg) in the intrascapular region to different groups of mice. Post-dose blood samples were collected and plasma was prepared by centrifugation. Aliquots of plasma were transferred into cryo tubes (0.5 ml U-shaped polypropylene cryotubes (Sarstedt Microtube with cap Ref #72.730) and stored frozen until quantification of haptoglobin, cytokines/chemokines and mRNA 1 protein concentrations. In some studies, quantification was also carried out of lipophilic anti-inflammatory agent in plasma samples. At 24 hours after administration, clinical signs of inflammatory response was evaluated by gently pressing the finger over the injection area to determine edema and judged by visual inspection as edema or no edema in the different mice. The number of mice displaying visible signs of edema per group (each group having 5 mice) was summed to give an edema score of 0-5.
mRNA 1 protein was measured as a single analyte with the Milliplex Human Liver Protein Magnetic beads [Merck Millipore, Darmstadt, Germany]. The assay was performed using the Bioplex Multiplex Suspension Array System, Luminex 100TM] and Bioplex Manager 6.1 software curve fitting software [Bio-Rad Laboratories, Hercules, Calif.]. Briefly, the assay was performed according to a modified protocol based upon the manufacturers' instruction, with additional calibration points to extend the lower range of the standard curve. Sample data was back calculated from the standard curve (5PL curve fitting).

haptoglobin = experiment: Quantification of haptoglobin in plasma; assay type: in vivo, mice; details: 24 h; for haptoglobin in plasma: s.c. 0.3 mg mRNA/kg
Experimental: as §2
Plasma concentrations of haptoglobin were measured by EMD Millipore's MILLIPLEX® MAP Mouse Acute Phase panel 2 kit (Merck KGaA, Darmstadt, Germany). The sample was first diluted 1:20 000 with Assay buffer then, together with standard's and QC's placed in a 96 well plate. A solution containing beads were then added. The beads were magnetic microspheres each of which was coated with a specific antibody. The mixture was incubated over night at 4° C. and the reaction mixture was then incubated with Streptavidin-PE conjungate to complete the reaction on the surface of each microsphere. The plate was read on analyzer Luminex® 100. Each individual microsphere was identified and the result of its bioassay quantified based on fluorescent reporter signals. The concentration was measured using Median Fluorescent Intensity (MFI) data using a 5-parameter logistic curve-fitting method.

[1] = test system: mice (female, Crl:Cd1(ICR)); experiment: Edema scoring at injection area after subcutaneous administration; assay type: in vivo
Experimental: as §2

KC = experiment: Quantification of cytokines/chemokines in plasma: KC; assay type: in vivo, mice; details: Example 10; pro-drug in L608 (Merck-32) LNPs, s.c. 0.3 mg mRNA/kg, 7 and 24 hours; vs. Sample S26
Experimental: as §1

[2] = Example 6, pro-drug in DLin-MC3-DMA LNPs, vs. non-anti-inflammatory LNPs
[3] = Example 9, in both Acuitas-5 and KL10 based LNPs, s.c. 0.3 mg/kg, compared to LNPs based on DLin-MC3-DMA
[4] = Example 10, pro-drug in L608 (Merck-32) LNPs, vs. conventional LNPs (Sample S26)
[5] = Example 6, pro-drug in DLin-MC3-DMA LNPs with mRNA 1, s.c. 0.3 mg mRNA/kg, vs. non-anti-inflammatory LNPs
[6] = Example 10, pro-drug in L608 (Merck-32) LNPs, s.c. 0.3 mg mRNA/kg, vs. conventional LNPs (Sample S26)
[7] = Example 7, in both DLin-MC3-DMA or Merck-32 based LNPs

Row | SMILES | plasma IL-6 (IL-6) | protein expression (plasma mRNA 1 protein) (mRNA 1 protein) | mRNA 1 protein expression (mRNA 1 protein; Example 9, time interval 0-24 h, Acuitas-5 and KL10 LNPs with vs without rofleponide myristate) | expression of mRNA 1 (plasma) (mRNA 1 protein) | haptoglobin in plasma (haptoglobin; [2]) | plasma haptoglobin (haptoglobin; [3]) | haptoglobin in plasma (haptoglobin; [4]) | inflammation measured as edema scoring [1, 5] | inflammation measured as edema scoring [1, 3] | inflammation measured as edema scoring [1, 6] | plasma KC (KC) | expression of mRNA 1 protein (mRNA 1 protein; [7]) | haptoglobin in plasma (haptoglobin; [7]) | inflammation measured as edema scoring ([1]; Example 7, in both DLin-MC3-DMA or Merck-32 based LNPs, s.c. 0.3 mg mRNA/kg, 24 h, vs same LNPs without)
1 | CCCCCCCCCCCCCC(=O)OCC(=O)C12OC(CCC)OC1CC1C3CC(F)C4=CC(=O)CCC4(C)C3(F)C(O)CC12C (stereo not shown) [R-C14, rofleponide myristate] | significantly reduce | increased and prolonged protein expression | increased | increased and prolonged expression of mRNA 1 | significantly reduced | reduced | significantly reduce | significantly reduced | reduced | significantly reduce | significantly reduce | – | – | –
2 | CCCCCCCCCCCCCCCC(=O)OCC(=O)C12OC(CCC)OC1CC1C3CC(F)C4=CC(=O)CCC4(C)C3(F)C(O)CC12C (stereo not shown) [R-C16, rofleponide palmitate] | – | increased and prolonged protein expression | – | – | significantly reduced | – | – | significantly reduced | – | – | – | increased expression of mRNA 1 protein | significantly reduced | significantly reduced
3 | CCCCC(=O)OCC(=O)[C@@]12O[C@H](CCC)O[C@@H]1C[C@H]1[C@@H]3C[C@H](F)C4=CC(=O)CC[C@]4(C)[C@@]3(F)[C@@H](O)C[C@@]12C [R-C5, rofleponide valerate] | – | did not produce a significantly increased total protein expression | – | – | not significantly influenced | – | – | not significantly influenced | – | – | – | – | – | –
4 | CCCCCCCCCCCCCCCCCC(=O)OCC(=O)[C@@]12O[C@H](CCC)O[C@@H]1C[C@H]1[C@@H]3C[C@H](F)C4=CC(=O)CC[C@]4(C)[C@@]3(F)[C@@H](O)C[C@@]12C [R-C18, rofleponide stearate] | – | increased and prolonged protein expression | – | – | significantly reduced | – | – | significantly reduced | – | – | – | – | – | –
5 | CCCCCCCCCCCCCCCC(=O)OCC(=O)[C@@]12OC(CCC)O[C@@H]1C[C@H]1[C@@H]3CCC4=CC(=O)C=C[C@]4(C)[C@H]3[C@@H](O)C[C@@]12C (stereo partly shown) [B-C16, budesonide palmitate] | significantly reduce | – | – | increased and prolonged expression of mRNA 1 | – | – | significantly reduce | – | – | significantly reduce | significantly reduce | – | – | –
6 | CCCCCCCC/C=C\CCCCCCCC(=O)OCC(=O)[C@@]12OC(CCC)O[C@@H]1C[C@H]1[C@@H]3CCC4=CC(=O)C=C[C@]4(C)[C@H]3[C@@H](O)C[C@@]12C (stereo partly shown) [B-C18:1, budesonide oleate] | significantly reduce | – | – | increased and prolonged expression of mRNA 1 | – | – | significantly reduce | – | – | significantly reduce | significantly reduce | – | – | –
7 | CCCCCCCCCCCCCC(=O)OCC(=O)[C@@]12OC(CCC)O[C@@H]1C[C@H]1[C@@H]3CCC4=CC(=O)C=C[C@]4(C)[C@H]3[C@@H](O)C[C@@]12C (stereo partly shown) [B-C14, budesonide myristate] | not influenced to the same extent | – | – | – | – | – | not influenced to the same extent | – | – | not influenced to the same extent | not influenced to the same extent | – | – | –

Source: patent publication US11458106B2, “Lipid nanoparticles comprising lipophilic anti-inflammatory agents and methods of use thereof” (ASTRAZENECA AB, priority 2016, dated 2022)
